Source: patent US10188615B2, “Alkoxy compounds for disease treatment” (Acucela Inc., priority 2007, dated 2019)

Legend:
[1] = biological target: recombinant human RPE65 and LRAT (Homo sapiens (Human), UniProt Q16518); test: Human in vitro isomerase inhibition assay; type: biochemical; conditions: Human in vitro Inhibition data; inhibition of 11-cis-retinol formation; HEK293 homogenate, all-trans-retinol about 20 μM, 37° C., one hour; given as ranges
Description: The concentration dependent effect of the compounds disclosed herein on the retinol isomerization reaction was also evaluated with a recombinant human enzyme system. […] A homogenate of HEK293 cell clone expressing recombinant human RPE65 and LRAT were the source of the visual enzymes, and exogenous all-trans-retinol (about 20 μM) was used as the substrate. Recombinant human CRALBP (about 80 ug/mL) was added to enhance the formation of 11 cis-retinal. The 200 μL Bis-Tris Phosphate buffer (10 mM, pH 7.2) based reaction mixture also contains 0.5% BSA, and 1 mM NaPPi. In this assay, the reaction was carried out at 37° C. in duplicates for one hour and was terminated by addition of 300 μL methanol. The amount of reaction product, 11-cis-retinol, was measured by HPLC analysis following Heptane extraction of the reaction mixture. […] The ability of the numerous compounds disclosed herein to inhibit isomerization reaction is quantified and the respective IC50 value is determined.

isomerase = isomerase (Mus musculus (Mouse), UniProt Q91ZQ5); test: In vivo murine isomerase assay (recovery of 11-cis-retinal after photobleaching); set-up: species or system mice; conditions: read-out: % Inhibition 1 mg/kg, 4 h
Sequence of isomerase (Q91ZQ5 whole entry): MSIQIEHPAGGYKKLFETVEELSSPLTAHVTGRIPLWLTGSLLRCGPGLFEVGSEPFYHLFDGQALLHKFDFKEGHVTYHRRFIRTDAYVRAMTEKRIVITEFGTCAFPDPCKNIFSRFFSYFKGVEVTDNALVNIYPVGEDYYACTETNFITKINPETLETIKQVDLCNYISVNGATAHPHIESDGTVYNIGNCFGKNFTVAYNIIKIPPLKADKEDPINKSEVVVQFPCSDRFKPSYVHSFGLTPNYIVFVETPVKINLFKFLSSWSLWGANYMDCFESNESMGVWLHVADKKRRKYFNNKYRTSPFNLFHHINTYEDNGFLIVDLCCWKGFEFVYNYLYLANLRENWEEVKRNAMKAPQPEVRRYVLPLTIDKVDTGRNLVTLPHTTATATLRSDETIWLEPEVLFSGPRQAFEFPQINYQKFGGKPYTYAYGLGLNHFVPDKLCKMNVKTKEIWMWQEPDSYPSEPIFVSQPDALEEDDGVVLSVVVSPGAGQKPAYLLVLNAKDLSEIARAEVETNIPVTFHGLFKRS
Description: The capability of compounds described herein to inhibit isomerase was determined by an in vivo murine isomerase assay. Brief exposure of the eye to intense light (“photobleaching” of the visual pigment or simply “bleaching”) is known to photo-isomerize almost all 11-cis-retinal in the retina. The recovery of 11-cis-retinal after bleaching can be used to estimate the activity of isomerase in vivo. Delayed recovery, as represented by lower 11-cis-retinal oxime levels, indicates inhibition of isomerization reaction.
The mice were allowed to recover 2 hours in the dark. The animals were then sacrificed by carbon dioxide inhalation. Retinoids were extracted from the eye and the regeneration of 11-cis-retinal was assessed at various time intervals.
After the mice were sacrificed, the eyes were immediately removed and placed in liquid nitrogen for storage.
The eyes were placed in 500 μL of bis-tris propane buffer (10 mM, pH ˜7.3) and 20 µL of 0.8M hydroxile amine (pH-7.3). The eyes were cut up into small pieces with small iris scissors and then thoroughly homogenized at 30000 rpm with a mechanical homogenizer (Polytron PT 1300 D) in the tube until no visible tissue remained. 500 μL of methanol and 500 μL of heptane were added to each tube. The tubes were attached to a vortexer so that the contents were mixed thoroughly for 15 minutes in room temperature. The organic phase was separated from the aqueous phase by centrifugation for 10 min at 13K rpm, 4° C. 240 μL of the solution from the top layer (organic phase) was removed and transferred to clean 300 μl glass inserts in HPLC vials using glass pipette and the vials were crimped shut tightly.
Loading volume for each sample is 100 μl; detection wavelength is 360 nm. The area under the curve for 11-cis retinal oxime was calculated by Agilent Chemstation software and was recorded manually. Data processing was performed using Prizm software.
Positive control mice (no compound administered) were sacrificed fully dark-adapted and the eye retinoids analyzed. Light (bleached) control mice (no compound administered) were sacrificed and retinoids isolated and analyzed immediately after light treatment.
Mice were sacrificed 2 hours after bleaching, eyes were enucleated, and retinoid content was analyzed by HPLC.
Recovery control mice (vehicle-only treated) were light-treated and left to recover for 2 hours in the dark before sacrifice and analysis. Light control mice (vehicle only treated) were sacrificed for analysis immediately after photo-bleaching.

visual cycle isomerase = visual cycle isomerase (Bos taurus (Bovine), UniProt Q28175); test: Bovine in vitro isomerase inhibition assay (RPE microsome membranes); conditions: Bovine in vitro Inhibition data; inhibition of 11-cis retinol formation; bovine RPE microsomes, 20 μM all-trans retinol, 37° C., 30 minutes; given as ranges
Sequence of visual cycle isomerase (Q28175 2-533): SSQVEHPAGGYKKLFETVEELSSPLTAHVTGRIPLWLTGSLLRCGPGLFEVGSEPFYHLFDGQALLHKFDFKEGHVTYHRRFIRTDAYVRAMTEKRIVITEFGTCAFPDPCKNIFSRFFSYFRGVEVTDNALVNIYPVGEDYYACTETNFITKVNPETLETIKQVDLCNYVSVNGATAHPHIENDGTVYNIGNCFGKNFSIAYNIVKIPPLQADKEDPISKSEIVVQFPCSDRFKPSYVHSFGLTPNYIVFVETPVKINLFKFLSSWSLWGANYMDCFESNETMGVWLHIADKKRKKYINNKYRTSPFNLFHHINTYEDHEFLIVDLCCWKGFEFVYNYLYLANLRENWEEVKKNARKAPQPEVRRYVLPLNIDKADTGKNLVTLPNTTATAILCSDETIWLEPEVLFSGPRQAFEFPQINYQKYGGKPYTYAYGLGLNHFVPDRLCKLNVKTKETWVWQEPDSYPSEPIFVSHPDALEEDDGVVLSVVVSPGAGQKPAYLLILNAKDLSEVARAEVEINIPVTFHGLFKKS
Description: The capability of compounds disclosed herein to inhibit the activity of a visual cycle isomerase was determined.
All tests were performed in duplicate.

Sequence of recombinant human RPE65 and LRAT (Q16518 2-533): as the sequence (Q28175 2-533) above, with S2I, I135V, V154I, I299L, H320N, E321G, G426C counted along it

NCCC(O)c1cccc(OCC2(O)CCCCCC2)c1 (centres unmarked) [Example 13, 1-((3-(3-Amino-1-Hydroxypropyl)Phenoxy)Methyl)Cycloheptanol]
IC50 [1]: ≤ 10 nM
inhibition at 1 mg/kg (isomerase): 41%
IC50 (visual cycle isomerase): ≤ 1000 nM

CCCC(CCC)COc1cccc(C(O)CCN)c1 (centres unmarked) [Example 17, 3-Amino-1-(3-(2-propylpentyloxy)phenyl)propan-1-ol]
IC50 [1]: ≤ 10 nM
inhibition at 1 mg/kg (isomerase): 96%
IC50 (visual cycle isomerase): ≤ 1000 nM

NCCC(O)c1cccc(OCC2CCCCCC2)c1 (centres unmarked) [Example 15, 3-Amino-1-(3-(cycloheptylmethoxy)phenyl)propan-1-ol]
IC50 [1]: ≤ 10 nM
inhibition at 1 mg/kg (isomerase): 91%
IC50 (visual cycle isomerase): ≤ 1000 nM

CCCC(CCC)COc1cccc(CCCN)c1 [Example 2, 3-(3-(2-Propylpentyloxy)phenyl)propan-1-amine]
inhibition at 1 mg/kg (isomerase): 1%
IC50 (visual cycle isomerase): ≤ 1000 nM

CCC(CC)COc1cccc(CCCN)c1 [Example 3, 3-(3-(2-Ethylbutoxy)phenyl)propan-1-amine]
inhibition at 1 mg/kg (isomerase): 12%
IC50 (visual cycle isomerase): ≤ 1000 nM

CCCC(O)(CCC)COc1cccc(C(O)CCN)c1 (centres unmarked) [Example 20, 4-((3-(3-Amino-1-hydroxypropyl)phenoxy)methyl)heptan-4-ol]
inhibition at 1 mg/kg (isomerase): 98%
IC50 (visual cycle isomerase): ≤ 1000 nM

NCCC(O)c1cccc(OCC2(O)CCCCC2)c1 (centres unmarked) [Example 12, 1-((3-(3-Amino-1-Hydroxypropyl)Phenoxy)Methyl)Cyclohexanol]
inhibition at 1 mg/kg (isomerase): 59%
IC50 (visual cycle isomerase): ≤ 1000 nM
